In experiment [1] the test system is D2-dopamine sites (bovine pituitary). Briefly: Displacement of [3H] spiroperidol, bovine pituitary (D2) binding. As to conditions: at 10^-5 M, 10 µM. The text has this:
(§1) As an example of the D1 -dopamine specificity of the compounds of this invention, a species of formula I, 6,7-dihydroxy-2,3,4,8,9-9a-hexahydro-4-phenyl-1H-indeno[1,7-cd]azepine hydrobromide, was submitted to standard binding tests for D1 and D2 -dopamine sites, see K. Flaim, loc. cit. for testing protocols.
[^3 H] spiroperidol bovine
In general terms: Loss of bound radioactivity is the signal in a displacement assay; it reports binding, not function.

The test system of experiment [2] is dopamine D1 and D2 receptor. As to conditions: in words; U.S. Pat. No. 4,197,297; cited from earlier work.
For experiment [3] the following is noted: in words; peripheral dopaminergic agent; cited from earlier work.
Experiment [4] concerns the target T1, D1-dopamine sites (rat caudate) (Rattus norvegicus, UniProt P18901).
T1 construct: rat caudate; from tissue; host or cells: rat caudate
Briefly: Displacement of [3H] fenoldopam, rat caudate (D1) binding. The settings on record: in words.
Description: as §1
[^3 H] fenoldopam rat caudate

Structures can show the parent of a compound that is named as a salt.

T1 sequence (P18901 whole entry): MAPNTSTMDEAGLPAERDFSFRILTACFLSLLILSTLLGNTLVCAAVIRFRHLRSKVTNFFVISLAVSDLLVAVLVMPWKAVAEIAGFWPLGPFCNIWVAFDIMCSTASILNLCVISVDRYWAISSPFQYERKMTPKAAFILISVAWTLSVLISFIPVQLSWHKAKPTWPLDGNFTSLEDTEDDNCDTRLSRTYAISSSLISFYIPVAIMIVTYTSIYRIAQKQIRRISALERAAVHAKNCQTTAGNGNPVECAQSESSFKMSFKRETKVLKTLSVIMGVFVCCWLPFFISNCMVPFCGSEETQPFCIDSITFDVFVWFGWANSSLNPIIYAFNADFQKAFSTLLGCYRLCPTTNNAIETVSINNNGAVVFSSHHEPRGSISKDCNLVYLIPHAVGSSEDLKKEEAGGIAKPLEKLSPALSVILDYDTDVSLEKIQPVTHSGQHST

With `Br.Oc1cc2c3c(c1O)CC[C@@H]3CNC[C@@H]2c1ccccc1` (stereo in doubt) [trans, trans-6,7-dihydroxy-2,3,4,8,9,9a-hexahydro-4-phenyl-1H-indeno[1,7-cd]azepine hydrobromide], in experiment [1], the “Displacement of [3H] spiroperidol bovine pituitary (D2)” value is reported as 0%.

As to `Oc1ccc(C2CNCCc3c2cc(O)c(O)c3Cl)cc1` (centres unmarked) [fenoldopam], the agonist activity entry in experiment [2] is “D1 and some D2 agonist activity”. In experiment [3], the described activity result is “renal dilating, anti-hypertensive, anti-shock and anti-congestive heart failure activity”.

In the case of `Oc1cc2c3c(c1O)CC[C@H]3CNC[C@H]2c1ccccc1` (stereo in doubt) [cis, cis-6,7-dihydroxy-2,3,4,8,9,9a-hexahydro-4-phenyl-1H-indeno[1-7-cd]azepinehydrobromide], in experiment [1], the “Displacement of [3H] spiroperidol bovine pituitary (D2)” value turned out to be 14%. Also, in experiment [4], the “potency and selectivity for D1 dopamine sites” value was “very potent and selective”.

(Values after patent US4769368A, “2,3,4,8,9,9A-Hexahydro-4-aryl-1H-indeno(1,7-CD)azepines” (SmithKline Beckman Corporation, priority 1986, dated 1988).)
